Measurements as given in the NIST ThermoML archive (doi:10.1021/je7007632).
Numbers after ± are expanded uncertainties.

Key:
[1] = refractive index (Na D-line) (dimensionless); xn = mol fraction of the nth substance listed; settings: 101 kPa, Liquid, Standard Abbe refractometry
[2] = refractive index (Na D-line) (dimensionless); settings: 101.33 kPa, Liquid, Standard Abbe refractometry

NC=O [formamide] + CCCCO
refractive index, [1]
Settings	x1 = 0.1093	x1 = 0.2057	x1 = 0.3138	x1 = 0.4104	x1 = 0.5115	x1 = 0.6124	x1 = 0.7081	x1 = 0.8123	x1 = 0.9086	x1 = 1
293.15 K	1.4023 ± 0.0004	1.4052 ± 0.0004	1.4086 ± 0.0004	1.4119 ± 0.0004	1.4158 ± 0.0004	1.4203 ± 0.0004	1.4252 ± 0.0004	1.4316 ± 0.0004	1.4389 ± 0.0004	1.4475 ± 0.0004
298.15 K	1.4003 ± 0.0004	1.4032 ± 0.0004	1.4067 ± 0.0004	1.4101 ± 0.0004	1.4141 ± 0.0004	1.4187 ± 0.0004	1.4238 ± 0.0004	1.4303 ± 0.0004	1.4378 ± 0.0004	1.4467 ± 0.0004
303.15 K	1.3983 ± 0.0004	1.4012 ± 0.0004	1.4048 ± 0.0004	1.4083 ± 0.0004	1.4124 ± 0.0004	1.4171 ± 0.0004	1.4223 ± 0.0004	1.429 ± 0.0004	1.4367 ± 0.0004	1.4459 ± 0.0004
308.15 K	1.3963 ± 0.0004	1.3992 ± 0.0004	1.4029 ± 0.0004	1.4065 ± 0.0004	1.4107 ± 0.0004	1.4155 ± 0.0004	1.4208 ± 0.0004	1.4277 ± 0.0004	1.4357 ± 0.0004	1.4451 ± 0.0004
313.15 K	1.3943 ± 0.0004	1.3973 ± 0.0004	1.4011 ± 0.0004	1.4047 ± 0.0004	1.409 ± 0.0004	1.4139 ± 0.0004	1.4194 ± 0.0004	1.4264 ± 0.0004	1.4345 ± 0.0004	1.4442 ± 0.0004
318.15 K	1.3923 ± 0.0004	1.3954 ± 0.0004	1.3992 ± 0.0004	1.4029 ± 0.0004	1.4073 ± 0.0004	1.4123 ± 0.0004	1.4179 ± 0.0004	1.4251 ± 0.0004	1.4334 ± 0.0004	1.4433 ± 0.0004

CC(O)CCO (centres undefined) [1,3-butanediol] + NC=O
refractive index, [1]
Settings	x2 = 0	x2 = 0.1061	x2 = 0.2004	x2 = 0.3068	x2 = 0.4026	x2 = 0.5033	x2 = 0.6046	x2 = 0.7013	x2 = 0.8073	x2 = 0.9058
293.15 K	1.4412 ± 0.0004	1.441 ± 0.0004	1.4409 ± 0.0004	1.4411 ± 0.0004	1.4414 ± 0.0004	1.4419 ± 0.0004	1.4425 ± 0.0004	1.4434 ± 0.0004	1.4445 ± 0.0004	1.4459 ± 0.0004
298.15 K	1.4391 ± 0.0004	1.4389 ± 0.0004	1.4389 ± 0.0004	1.4391 ± 0.0004	1.4395 ± 0.0004	1.4401 ± 0.0004	1.4409 ± 0.0004	1.4419 ± 0.0004	1.4432 ± 0.0004	1.4448 ± 0.0004
303.15 K	1.437 ± 0.0004	1.4368 ± 0.0004	1.4369 ± 0.0004	1.4372 ± 0.0004	1.4377 ± 0.0004	1.4384 ± 0.0004	1.4393 ± 0.0004	1.4404 ± 0.0004	1.4419 ± 0.0004	1.4437 ± 0.0004
308.15 K	1.4349 ± 0.0004	1.4348 ± 0.0004	1.4349 ± 0.0004	1.4352 ± 0.0004	1.4358 ± 0.0004	1.4366 ± 0.0004	1.4377 ± 0.0004	1.4389 ± 0.0004	1.4406 ± 0.0004	1.4427 ± 0.0004
313.15 K	1.4329 ± 0.0004	1.4328 ± 0.0004	1.4329 ± 0.0004	1.4333 ± 0.0004	1.434 ± 0.0004	1.4349 ± 0.0004	1.436 ± 0.0004	1.4374 ± 0.0004	1.4393 ± 0.0004	1.4415 ± 0.0004
318.15 K	1.4308 ± 0.0004	1.4307 ± 0.0004	1.4309 ± 0.0004	1.4314 ± 0.0004	1.4321 ± 0.0004	1.4331 ± 0.0004	1.4344 ± 0.0004	1.4359 ± 0.0004	1.4379 ± 0.0004	1.4404 ± 0.0004

CCCCO [butan-1-ol] + NC=O
[1], x2 = 0
Settings	refractive index
293.15 K	1.3994 ± 0.0004
298.15 K	1.3974 ± 0.0004
303.15 K	1.3953 ± 0.0004
308.15 K	1.3933 ± 0.0004
313.15 K	1.3913 ± 0.0004
318.15 K	1.3893 ± 0.0004

CCC(C)O (centres undefined) [butan-2-ol]
[2]
Settings	refractive index
293.15 K	1.3972 ± 0.0004
298.15 K	1.3951 ± 0.0004
303.15 K	1.3931 ± 0.0004
308.15 K	1.3911 ± 0.0004
313.15 K	1.3891 ± 0.0004
318.15 K	1.3871 ± 0.0004

NC=O [formamide] + CC(O)CCO
[1], x1 = 1
Settings	refractive index
293.15 K	1.4475 ± 0.0004
298.15 K	1.4467 ± 0.0004
303.15 K	1.4459 ± 0.0004
308.15 K	1.4451 ± 0.0004
313.15 K	1.4442 ± 0.0004
318.15 K	1.4433 ± 0.0004

NC=O [formamide] + CCC(C)O
refractive index, [1]
Settings	x1 = 0.1043	x1 = 0.2043	x1 = 0.3056	x1 = 0.4083	x1 = 0.5093	x1 = 0.6063	x1 = 0.7068	x1 = 0.8042	x1 = 0.9024	x1 = 1
293.15 K	1.3993 ± 0.0004	1.4017 ± 0.0004	1.4045 ± 0.0004	1.4079 ± 0.0004	1.4119 ± 0.0004	1.4165 ± 0.0004	1.4222 ± 0.0004	1.4289 ± 0.0004	1.4372 ± 0.0004	1.4475 ± 0.0004
298.15 K	1.3973 ± 0.0004	1.3996 ± 0.0004	1.4025 ± 0.0004	1.4061 ± 0.0004	1.4102 ± 0.0004	1.4149 ± 0.0004	1.4207 ± 0.0004	1.4276 ± 0.0004	1.4361 ± 0.0004	1.4467 ± 0.0004
303.15 K	1.3953 ± 0.0004	1.3977 ± 0.0004	1.4007 ± 0.0004	1.4043 ± 0.0004	1.4085 ± 0.0004	1.4133 ± 0.0004	1.4193 ± 0.0004	1.4263 ± 0.0004	1.435 ± 0.0004	1.4459 ± 0.0004
308.15 K	1.3933 ± 0.0004	1.3958 ± 0.0004	1.3989 ± 0.0004	1.4026 ± 0.0004	1.4068 ± 0.0004	1.4118 ± 0.0004	1.4179 ± 0.0004	1.4251 ± 0.0004	1.434 ± 0.0004	1.4451 ± 0.0004
313.15 K	1.3913 ± 0.0004	1.3939 ± 0.0004	1.397 ± 0.0004	1.4008 ± 0.0004	1.4051 ± 0.0004	1.4102 ± 0.0004	1.4164 ± 0.0004	1.4237 ± 0.0004	1.4328 ± 0.0004	1.4442 ± 0.0004
318.15 K	1.3893 ± 0.0004	1.3919 ± 0.0004	1.3951 ± 0.0004	1.399 ± 0.0004	1.4034 ± 0.0004	1.4086 ± 0.0004	1.4149 ± 0.0004	1.4224 ± 0.0004	1.4317 ± 0.0004	1.4433 ± 0.0004

OCCCCO [1,4-butanediol]
[2]
Settings	refractive index
293.15 K	1.4451 ± 0.0004
298.15 K	1.4431 ± 0.0004
303.15 K	1.4411 ± 0.0004
308.15 K	1.4391 ± 0.0004
313.15 K	1.4372 ± 0.0004
318.15 K	1.4352 ± 0.0004

OCCCCO [1,4-butanediol] + NC=O
refractive index, [1]
Settings	x2 = 0	x2 = 0.1052	x2 = 0.1988	x2 = 0.3041	x2 = 0.4002	x2 = 0.5009	x2 = 0.6022	x2 = 0.6992	x2 = 0.8051	x2 = 0.905
293.15 K	1.4451 ± 0.0004	1.4445 ± 0.0004	1.444 ± 0.0004	1.4437 ± 0.0004	1.4436 ± 0.0004	1.4437 ± 0.0004	1.444 ± 0.0004	1.4445 ± 0.0004	1.4452 ± 0.0004	1.4463 ± 0.0004
298.15 K	1.4431 ± 0.0004	1.4425 ± 0.0004	1.442 ± 0.0004	1.4418 ± 0.0004	1.4418 ± 0.0004	1.442 ± 0.0004	1.4424 ± 0.0004	1.4431 ± 0.0004	1.4439 ± 0.0004	1.4452 ± 0.0004
303.15 K	1.4411 ± 0.0004	1.4405 ± 0.0004	1.44 ± 0.0004	1.4399 ± 0.0004	1.44 ± 0.0004	1.4403 ± 0.0004	1.4408 ± 0.0004	1.4416 ± 0.0004	1.4426 ± 0.0004	1.4441 ± 0.0004
308.15 K	1.4391 ± 0.0004	1.4385 ± 0.0004	1.438 ± 0.0004	1.438 ± 0.0004	1.4382 ± 0.0004	1.4386 ± 0.0004	1.4392 ± 0.0004	1.4401 ± 0.0004	1.4413 ± 0.0004	1.443 ± 0.0004
313.15 K	1.4372 ± 0.0004	1.4365 ± 0.0004	1.4361 ± 0.0004	1.4361 ± 0.0004	1.4364 ± 0.0004	1.4369 ± 0.0004	1.4376 ± 0.0004	1.4386 ± 0.0004	1.44 ± 0.0004	1.4419 ± 0.0004
318.15 K	1.4352 ± 0.0004	1.4345 ± 0.0004	1.4341 ± 0.0004	1.4342 ± 0.0004	1.4345 ± 0.0004	1.4351 ± 0.0004	1.4359 ± 0.0004	1.437 ± 0.0004	1.4386 ± 0.0004	1.4407 ± 0.0004

CC(O)CCO (centres undefined) [1,3-butanediol]
[2]
Settings	refractive index
293.15 K	1.4412 ± 0.0004
298.15 K	1.4391 ± 0.0004
303.15 K	1.437 ± 0.0004
308.15 K	1.4349 ± 0.0004
313.15 K	1.4329 ± 0.0004
318.15 K	1.4308 ± 0.0004

CCCCO [butan-1-ol]
[2]
Settings	refractive index
293.15 K	1.3994 ± 0.0004
298.15 K	1.3974 ± 0.0004
303.15 K	1.3953 ± 0.0004
308.15 K	1.3933 ± 0.0004
313.15 K	1.3913 ± 0.0004
318.15 K	1.3893 ± 0.0004

CCC(C)O (centres undefined) [butan-2-ol] + NC=O
[1], x2 = 0
Settings	refractive index
293.15 K	1.3972 ± 0.0004
298.15 K	1.3951 ± 0.0004
303.15 K	1.3931 ± 0.0004
308.15 K	1.3911 ± 0.0004
313.15 K	1.3891 ± 0.0004
318.15 K	1.3871 ± 0.0004

NC=O [formamide] + OCCCCO
[1], x1 = 1
Settings	refractive index
293.15 K	1.4475 ± 0.0004
298.15 K	1.4467 ± 0.0004
303.15 K	1.4459 ± 0.0004
308.15 K	1.4451 ± 0.0004
313.15 K	1.4442 ± 0.0004
318.15 K	1.4433 ± 0.0004

NC=O [formamide]
[2]
Settings	refractive index
293.15 K	1.4475 ± 0.0004
298.15 K	1.4467 ± 0.0004
303.15 K	1.4459 ± 0.0004
308.15 K	1.4451 ± 0.0004
313.15 K	1.4442 ± 0.0004
318.15 K	1.4433 ± 0.0004
